{"source": "patent US8906894B1", "about": "“Methods for preventing and treating thrombotic disorders” (priority 2000, dated 2014)", "key": {"platelets": {"test_system": "platelets", "assay": "epinephrine-induced platelet aggregation", "format": "cell-based, human", "excerpt": "During the study, optical density was continuously recorded."}, "rat brain": {"test_system": "rat brain", "assay": "infarct volume after middle cerebral artery occlusion (MCAO)", "format": "in vivo", "protocol": "Adult male rats weighing 200-250 g were anesthetized. Focal cerebral ischemia was induced by ligature of the left common carotid artery and occlusion of the ipsilateral distal middle cerebral artery (MCAO). […] Rats subjected to sham MCAO operation served as control. To determine infarct volume, the brains were removed 48 hours after MCAO and a series of coronal brain slices were obtained and stained with 1% 2,3,5-triphenyl-tetrazolium chloride in 0.1M phosphate buffer. The infarct volume was determined by adding the infarct volumes, which were unstained by the dye."}, "blood vessels [1]": {"test_system": "blood vessels", "assay": "vasodilation of blood vessels"}, "NO production": {"test_system": "NO production", "assay": "stimulation of NO production"}, "blood vessels [2]": {"test_system": "blood vessels", "assay": "inhibition of contraction"}, "β-amyloid": {"test_system": "β-amyloid", "assay": "inhibition of β-amyloid"}, "[3]": {"settings": "patients; cited from earlier work"}, "[4]": {"settings": "cited from earlier work"}, "human platelets [5]": {"test_system": "human platelets", "assay": "ADP-induced human platelet aggregation, preincubation with drug", "format": "cell-based", "settings": "data not shown", "protocol": "(§1) 500 microliter of whole blood was diluted with equal volume of 0.9% sodium chloride and prewarmed at 37° C. for 5 minutes. For optical studies, platelet rich plasma blood was mixed gently and immediately centrifuged at 180 g for 10 min to obtain platelet-rich plasma (PRP). Platelet poor plasma (PPP) was obtained by centrifugation at 1800 g for 15 minutes at room temperature. The platelet concentration in the PRP was adjusted to approximately 250×10^9 cells/l using PPP. Readings were taken at 37° C. at a stirring speed of 1200 rpm.\nAggregation agonists were used at a final concentration of 2.0×10^−5 M for ADP, 0.19 mg/ml for collagen, 500 μg/ml for arachidonic acid, and 1×10^−4 M for epinephrine. During the study, optical density was continuously recorded. The 0% and 100% aggregation levels were set with PRP and PPP, respectively. The maximal percentage of platelet aggregation was calculated as the light transmission between platelet-rich and platelet-poor plasma (100%). When a stable baseline was obtained with 450 μl of PRP, 50 μl of one of the aggregation-inducing agents was added. The maximum height and slope of the aggregation curves were determined. After the electrode was immersed in the sample, platelet aggregation to various agonists (collagen, ADP, arachidonic acid or epinephrine) was measured in ohms of impedance. […]"}, "human platelets [6]": {"test_system": "human platelets", "assay": "collagen-induced human platelet aggregation, preincubation with drug", "format": "cell-based", "settings": "15 min preincubation; for peak aggregation: collagen (baseline around 89%)", "protocol": "as §1\nAggregation agonists were used at a final concentration of 2.0×10^−5 M for ADP, 0.19 mg/ml for collagen, 500 μg/ml for arachidonic acid, and 1×10^−4 M for epinephrine. During the study, optical density was continuously recorded. The 0% and 100% aggregation levels were set with PRP and PPP, respectively. The maximal percentage of platelet aggregation was calculated as the light transmission between platelet-rich and platelet-poor plasma (100%). When a stable baseline was obtained with 450 μl of PRP, 50 μl of one of the aggregation-inducing agents was added. The maximum height and slope of the aggregation curves were determined. After the electrode was immersed in the sample, platelet aggregation to various agonists (collagen, ADP, arachidonic acid or epinephrine) was measured in ohms of impedance. The lag phase was defined as the delay time occurring between the addition of collagen and the beginning of the aggregation curve.\nBlood samples were preincubated in 50 μM or 100 μM rasagiline, a MAO-B inhibitor, for 15 minutes and aggregation stimulated using collagen. […] Aggregation onset was also delayed by treatment with rasagiline."}}}
{"smiles": "C#CCN(C)[C@H](C)Cc1ccccc1", "note": "[1-deprenyl, L-deprenyl]", "values": [{"measurement": "platelet aggregation induced by epinephrine", "setting": "platelets", "result": "inhibited the platelet aggregation"}, {"measurement": "blood vessel disruption and bleeding", "setting": "rat brain; following 1-deprenyl administration", "result": "reduced"}, {"measurement": "ability to dilate blood vessels", "setting": "blood vessels [1]", "result": "dilate blood vessels"}, {"measurement": "dose causing rapid NO-mediated endothelium-dependent vasodilation", "setting": "blood vessels [1]; low doses", "result": "≤ 10", "unit": "µM"}, {"measurement": "ability to stimulate NO production", "setting": "NO production", "result": "stimulate NO production"}, {"measurement": "lowest concentration with stimulatory effect on NO production", "setting": "NO production", "result": 1, "unit": "µM"}, {"measurement": "ability to inhibit contraction", "setting": "blood vessels [2]", "result": "inhibit contraction"}, {"measurement": "ability to inhibit β-amyloid", "setting": "β-amyloid", "result": "inhibit β-amyloid"}]}
{"smiles": "Cl.NCCNC(=O)c1ccc(Cl)cc1", "note": "[RO-16-6491, N-(2-aminoethyl)4-chlorobenzamide hydrochloride]", "values": [{"measurement": "ability to dilate blood vessels", "setting": "blood vessels [1]", "result": "dilate blood vessels"}, {"measurement": "ability to stimulate NO production", "setting": "NO production", "result": "stimulate NO production"}, {"measurement": "ability to inhibit contraction", "setting": "blood vessels [2]", "result": "inhibit contraction"}, {"measurement": "ability to inhibit β-amyloid", "setting": "β-amyloid", "result": "inhibit β-amyloid"}]}
{"smiles": "Cl.NCCNC(=O)c1ncsc1-c1cccc(F)c1", "note": "[RO-41-1049, N-(2-aminoethyl)-5-(3-fluorophenyl)-4-thiazolecarboxamide hydro-chloride]", "values": [{"measurement": "ability to dilate blood vessels", "setting": "blood vessels [1]", "result": "dilate blood vessels"}, {"measurement": "ability to stimulate NO production", "setting": "NO production", "result": "stimulate NO production"}, {"measurement": "ability to inhibit contraction", "setting": "blood vessels [2]", "result": "inhibit contraction"}, {"measurement": "ability to inhibit β-amyloid", "setting": "β-amyloid", "result": "inhibit β-amyloid"}]}
{"smiles": "CC(=O)Oc1ccccc1C(=O)O", "note": "[aspirin, Acetylsalicylic acid]", "values": [{"measurement": "reduction of infarct size", "setting": "rat brain; aspirin 30 mg/kg intraperitoneally 2 hours prior to MCAO, brains 48 hours after MCAO, vs untreated control", "result": "about 30%"}, {"measurement": "relative risk reduction of CVD", "setting": "[3]", "result": 25, "unit": "%"}]}
{"smiles": "COC(=O)[C@H](c1ccccc1Cl)N1CCc2sccc2C1", "note": "[clopidogrel]", "values": [{"measurement": "share of drug converted to active metabolites in the liver", "setting": "[4]; by cytochrome P450 isoforms", "result": 15, "unit": "%"}, {"measurement": "share of prodrug converted into inactive metabolites", "setting": "[4]; in vivo", "result": 85, "unit": "%"}]}
{"smiles": "C#CCN(C)CCCOc1ccc(Cl)cc1Cl", "note": "[clorgyline]", "values": [{"measurement": "ability to dilate blood vessels", "setting": "blood vessels [1]", "result": "dilate blood vessels"}, {"measurement": "ability to stimulate NO production", "setting": "NO production", "result": "stimulate NO production"}, {"measurement": "ability to inhibit contraction", "setting": "blood vessels [2]", "result": "inhibit contraction"}, {"measurement": "ability to inhibit β-amyloid", "setting": "β-amyloid", "result": "inhibit β-amyloid"}]}
{"smiles": "C#CCN(C)Cc1ccccc1", "note": "[pargyline]", "values": [{"measurement": "ability to dilate blood vessels", "setting": "blood vessels [1]", "result": "dilate blood vessels"}, {"measurement": "ability to stimulate NO production", "setting": "NO production", "result": "stimulate NO production"}, {"measurement": "ability to inhibit contraction", "setting": "blood vessels [2]", "result": "inhibit contraction"}, {"measurement": "ability to inhibit β-amyloid", "setting": "β-amyloid", "result": "inhibit β-amyloid"}]}
{"smiles": "C#CCN[C@@H]1CCc2ccccc21", "note": "[rasagiline]", "values": [{"measurement": "inhibition at 100 µM", "setting": "human platelets [5]", "result": 69, "unit": "%"}, {"measurement": "aggregation onset", "setting": "human platelets [6]; 50 μM or 100 μM, collagen", "result": "delayed"}, {"measurement": "peak aggregation", "setting": "human platelets [6]; 50 μM", "result": 35, "unit": "%"}, {"measurement": "peak aggregation", "setting": "human platelets [6]; 100 μM", "result": "negligible levels"}]}
